According to US9045438B2 (Silanes S.A. de C.V., priority 2002, dated 2015):

Key:
[1] = test system: patients with uncontrolled type 2 diabetes mellitus; assay: Random double blind clinical study in patients with uncontrolled type 2 diabetes mellitus, 90 days; format: in vivo, human; details: uncontrolled type 2 diabetes patients, final evaluation 90 days, dose by basal glycemia
Source text: Criteria for inclusion were as follows: • 1. […] Age 40 to 65; • 3. Capacity for deglutition; and • 4 Voluntary consent Criteria for exclusion were as follows: • 1. Pregnancy; • 2. Insulin treatment; and • 3. Personal background of systemic diseases such as: • a) Cardiac insufficiency; and • b) Hepatic or chronic hepatopathic insufficiency. • 4 Background of significant chronic complications with type 2 diabetes mellitus: • a) Renal insufficiency; • b) Ischemic cardiopathy; • c) Cerebral vascular disease; and • d) Visceral neuropathy. • 5. Background of short-term terminal diseases, such as: • a) Cancer; and • b) HIV • 6. […] Known intolerance or allergies to sulfonylureas or biguanides. Criteria for exclusion from the therapy, but not from the statistical analysis: • 1. Presence of severe hypoglycemia at the maximum dosages used in the study; • 2. Presence of severe hypoglycemia at the minimum dosages used in the study; • 3. Presence of intolerable undesirable effects with any of the medications used in the study; • 4. Failure to follow the medical treatment indicated; • 5. Failure to attend scheduled visits; • 6. Intercurrent illnesses or accidents that warrant hospitalization; • 7. […] Voluntary withdrawal from the study. The variables studied were as follows: • Dependent variables: • a) Glycemia between meals; • b) Glucosylated hemoglobin; • c) β cell function; • d) Insulin resistance; and • e) Metabolic profile. • Independent variable: • a) Hypoglycemic therapy. • Intervening variables: • a) Age; • b) Sex; • c) Body mass index; and • d) Evolution of diabetes. Clinical measurements and basal measurement of glycemia between meals, glucosylated hemoglobin, total cholesterol, cholesterol of high density lipoproteins, triglycerides, creatinine, uric acid, glutemic-oxaloacetic transaminase, glutemic-pyruvic transaminase, lactic dehydrogenase, alkaline and insulin phosphatase. Random assignment of patients to each group and pharmacological intervention in accordance with concentration of basal glycemia: [table] Clinical evaluation 30 and 60 days after beginning the study, measuring glycemia between meals and lactic dehydroginase. Final clinical evaluations 90 days after the study begins, measuring glycemia between meals, glucosylated hemoglobin, total cholesterol, high density lipoprotein cholesterol, triglyceride, creatinine, uric acid, glutemic-oxaloacetic transaminase, glutemic-pyruvic transaminase, lactic dehydrogenase, alkaline and insulin phosphatase. Undesirable effects were reported on a special record sheet, specifying each of the clinical manifestations considered probable, possible or directly related to the use of the drugs ingested.

type 2 diabetic patients = details: cited from earlier work
clinical = details: both, human, in vivo

| half-life (clinical) | SMILES | Blood glucose between meals (change) [1] | Glucosylated hemoglobin HbA1c (change) [1] | Post-prandial blood glucose (change) [1] | potency relative to glibenclamide (type 2 diabetic patients; R. Groomis et al., Endocrinology 13:117-121 (2000)) | incidence of severe hypoglycemia versus glibenclamide (type 2 diabetic patients; type 2 diabetic patients, A. Holstein et al. (2000)) |
| --- | --- | --- | --- | --- | --- | --- |
| – | CN(C)C(=N)N=C(N)N [metformin] | +0.75 | +0.06 | +1.08 | – | – |
| 3.73 h | CCC1=C(C)CN(C(=O)NCCc2ccc(S(=O)(=O)NC(=O)N[C@H]3CC[C@H](C)CC3)cc2)C1=O [glimepiride] | +0.68 | +0.25 | +0.99 | two times higher | lower incidence |
